Like-named read-outs stand apart in the source and are kept apart here.

Results on five compounds are retold here after patent US20230150951A1, “2,5- OR 2,6-DISUBSTITUTED HYDROQUINONE DERIVATIVES WITH AT LEAST ONE CARBOXY, SULFO OR AMIDO GROUP USEFUL AS MEDICAMENTS” (OM PHARMA SA, priority 2020, published 2023).

Format in all cases: cell-based
One assay deals with T1, VEGFR-2 (Homo sapiens, UniProt P35968).
T1 construct: endogenous in cells; host or cells: primary HUVEC
The assay is described as follows: VEGF-165 induced phosphorylation of VEGF-Receptor on HUVEC. Conditions: HUVEC preincubated 60 min, VEGF165 25 ng/mL 2 min; read-out: VEGFR-Phosphorylation inhibition IC50.

For a further assay, the system named is GM-CSF. The assay is described as follows: Cytokine release after LPS induction on human whole blood: GM-CSF. On the procedure: (§1) Aim of this in vitro method is to assess compounds effects on release of a panel of cytokines from whole blood following lipopolysaccharide (LPS) induced inflammatory reaction. Whole blood was incubated with compounds for 1 h prior to LPS induction. Cytokine levels in blood were measured using a multiplex FACS-based panel.
(§2) IC50 values determined for the tested compounds expressed in microM [μM] and the values for the inhibition of cytokines were listed for each compound.
(§3) Effect on cytokines release after LPS induction was performed on the compounds dissolved in DMSO or H2O to reach 10-fold concentrated stock solutions and dissolved in culture media.
(§4) Test system: Whole blood was removed from a single donor (into lithium heparin coated tubes; BD Vacutainer; 367886) and diluted 1:5 with RPMI 1640 (Thermo Fisher, 61870036). Within 30 minutes of sampling, blood was incubated with compounds for 1 h prior to LPS stimulation (O111:B4—Sigma L4391; 10 ng/ml final concentration). Stimulation continued under standard cell culture conditions (37° C. with 5% CO2) overnight (18 h), after which plates were centrifuged and supernatant removed and frozen at −80° C. until used for analyses.
(§5) Dilution of test compounds: 10×concentrated solutions (concerning to the final assay concentrations) of each test compound were prepared with the appropriate solvent (in DMSO or in water). These 10× compound solutions (10 μl) were then added to 90 μl pre-diluted whole blood (whole blood: RPMI1640, 1:5) resulting in the final assay concentration.
(§6) Test method: Diluted whole blood (80 μl) was pre-incubated with compounds (10 μl) to give final assay concentrations of 100, 30, 10, 3, 1, 0.3 and 0.1×10^−6M. Blood was incubated at 37° C. with 5% CO2 for 1 h. LPS was diluted in cell culture media to a concentration of […]; 10 μl was added to the whole blood to give a final concentration of 10 ng/ml. Plates were incubated at 37° C. for 18 h. Plates were centrifuged at 3,000 RPM for 5 minutes at 4° C. and supernatant removed and frozen at −80° C. until FACS analysis was carried out.
(§7) Cytokine release was measured using a custom multiplex system (ELISA Genie) according to manufacturers instructions. Prepared samples were run on an Attune NxT flow cytometer (Thermo Fisher).
(§8) Quantification of cytokine release inhibition: known concentration standards were run as part of the cytokine panel to allow quantification of each cytokine concentration in each sample. This was carried out using FCAP Array v3.0 software.
(§9) Results: The dose response relationship on cytokine release following LPS induction of inflammatory response in whole blood was assessed for all compounds. IC50 values were determined for each compound for a panel of cytokines (GM-CSF, IFN-gamma, IL-1beta, IL-2, IL-4, IL-5, IL-6, IL-8, IL-9, IL-10, IL-12p40, IL-13, IL-17A, IL-17F, IL-18, IL-21, IL-22, IL-33, TGF-beta, TNF-alpha, TNF-beta).

The test system of another assay is IFN-gamma. The assay is described as follows: Cytokine release after LPS induction on human whole blood: IFNγ. The method, then:
as §1, §2, §3, §4, §5, §6, §7, §8, §9

For another assay, the system named is IL-17F. The assay can be described thus: Cytokine release after LPS induction on human whole blood: IL-17F. The method, then:
as §1, §2, §3, §4, §5, §6, §7, §8, §9

The next assay relates to IL-21. The assay can be described thus: Cytokine release after LPS induction on human whole blood: IL-21. The method, then: as §1, §2, §3, §4, §5, §6, §7, §8, §9
A further assay has as its system TGF-beta. The assay is described as follows: Cytokine release after LPS induction on human whole blood: TGFβ. The method, then: as §1, §2, §3, §4, §5, §6, §7, §8, §9
The next assay deals with TNF-alpha. The assay can be described thus: Cytokine release after LPS induction on human whole blood: TNFα. On the procedure: as §1, §2, §3, §4, §5, §6, §7, §8, §9
Setting [1] is: Homo sapiens, LPS 10 ng/ml, 18 h, read-out: Whole Blood: GM-CSF IC50.
Setting [2] is: human whole blood, inhibition of LPS induced inflammation, read-out: IC50 GM-CSF.
The mark [3] stands for this setting: Homo sapiens, LPS 10 ng/ml, 18 h, read-out: Whole Blood: IFNγ IC50.
The mark [4] stands for this setting: human whole blood, inhibition of LPS induced inflammation, read-out: IC50 IFNγ.
The mark [5] stands for this setting: Homo sapiens, LPS 10 ng/ml, 18 h, read-out: Whole Blood: IL-17F IC50.
Setting [6] is: human whole blood, inhibition of LPS induced inflammation, read-out: IC50 IL-17F.
Where [7] appears, read: Homo sapiens, LPS 10 ng/ml, 18 h, read-out: Whole Blood: IL-21 IC50.
[8] abbreviates: human whole blood, inhibition of LPS induced inflammation, read-out: IC50 IL-21.
Setting [9] is: Homo sapiens, LPS 10 ng/ml, 18 h, read-out: Whole Blood: TGFβ IC50.
The mark [10] stands for this setting: human whole blood, inhibition of LPS induced inflammation, read-out: IC50 TGFbeta.
[11] abbreviates: Homo sapiens, LPS 10 ng/ml, 18 h, read-out: Whole Blood: TNF α IC50.
The mark [12] stands for this setting: human whole blood, inhibition of LPS induced inflammation, read-out: IC50 TNFa.

T1 sequence (P35968 20-1356): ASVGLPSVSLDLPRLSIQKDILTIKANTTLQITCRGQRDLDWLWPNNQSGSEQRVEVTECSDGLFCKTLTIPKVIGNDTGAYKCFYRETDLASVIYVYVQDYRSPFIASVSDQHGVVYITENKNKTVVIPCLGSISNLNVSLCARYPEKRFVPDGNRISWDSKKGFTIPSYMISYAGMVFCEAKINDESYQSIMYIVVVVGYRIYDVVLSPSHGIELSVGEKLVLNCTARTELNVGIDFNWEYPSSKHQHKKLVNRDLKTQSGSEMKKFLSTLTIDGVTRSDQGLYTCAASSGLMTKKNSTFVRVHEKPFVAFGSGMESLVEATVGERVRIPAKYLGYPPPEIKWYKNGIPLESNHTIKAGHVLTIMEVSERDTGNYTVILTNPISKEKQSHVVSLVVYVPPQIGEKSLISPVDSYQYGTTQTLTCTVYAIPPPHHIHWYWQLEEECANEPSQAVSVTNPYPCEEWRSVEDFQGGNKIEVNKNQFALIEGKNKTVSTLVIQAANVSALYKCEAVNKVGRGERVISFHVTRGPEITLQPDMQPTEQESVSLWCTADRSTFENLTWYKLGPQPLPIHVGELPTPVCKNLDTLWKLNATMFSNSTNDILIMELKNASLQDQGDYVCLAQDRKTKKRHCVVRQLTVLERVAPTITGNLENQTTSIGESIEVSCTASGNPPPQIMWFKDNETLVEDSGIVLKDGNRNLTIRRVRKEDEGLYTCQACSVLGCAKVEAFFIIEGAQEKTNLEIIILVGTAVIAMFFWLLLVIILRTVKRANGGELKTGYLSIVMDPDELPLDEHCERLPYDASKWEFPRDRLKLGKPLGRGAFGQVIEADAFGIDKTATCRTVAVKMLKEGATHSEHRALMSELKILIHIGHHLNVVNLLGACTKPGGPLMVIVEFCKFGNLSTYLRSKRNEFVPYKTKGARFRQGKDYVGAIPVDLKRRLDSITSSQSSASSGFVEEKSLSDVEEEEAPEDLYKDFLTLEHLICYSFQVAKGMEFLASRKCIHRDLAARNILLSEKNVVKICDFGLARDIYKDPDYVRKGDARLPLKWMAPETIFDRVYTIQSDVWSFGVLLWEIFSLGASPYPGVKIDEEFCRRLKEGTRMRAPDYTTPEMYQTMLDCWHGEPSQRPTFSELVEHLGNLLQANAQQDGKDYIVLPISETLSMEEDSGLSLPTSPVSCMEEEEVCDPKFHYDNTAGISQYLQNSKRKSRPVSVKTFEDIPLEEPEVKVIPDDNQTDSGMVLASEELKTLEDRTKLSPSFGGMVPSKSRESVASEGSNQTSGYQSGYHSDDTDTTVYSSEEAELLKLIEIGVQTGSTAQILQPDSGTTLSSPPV

By IC50 is commonly meant the concentration at which inhibition is half-maximal. As for `O=C(O)c1cc(O)cc(CS(=O)(=O)Cc2cc(O)cc(C(=O)O)c2O)c1O` [IVc-059a, 3-((2,5-Dihydroxy-3-carboxyphenyl)methylsulfonylmethyl)-2,5-dihydroxybenzoic acid], the IC50 on VEGFR-2 is 4.8 µM; with GM-CSF (setting [1]), more than 100 µM; in the assay with GM-CSF (setting [2]), 100 µM; in the assay on IFN-gamma (setting [3]) it was 4.34 µM; with IFN-gamma (setting [4]), 4.34 µM; with IL-17F (setting [5]), more than 100 µM. Also, the IC50 with IL-17F (setting [6]) was 100 µM; in the assay with IL-21 (setting [7]), 1.87 µM; in the assay with IL-21 (setting [8]) it was 1.87 µM; in the assay with TGF-beta (setting [9]) it was more than 100 µM; with TGF-beta (setting [10]), 100 µM; in the assay with TNF-alpha (setting [11]) it was 0.16 µM. For the same compound, in the assay on TNF-alpha (setting [12]), the IC50 came out at 0.16 µM.

For `O=C(O)c1cc(O)ccc1NC(=O)c1cc(O)cc(C(=O)Nc2ccc(O)cc2C(=O)O)c1O` [IIc-009a, 2-(3-(2-carboxy-4-hydroxyphenylaminocarbonyl)-2,5-dihydroxybenzamido)-5-hydroxyl benzoic acid], the IC50 was 1.7 µM at VEGFR-2; more than 100 µM in the assay with GM-CSF (setting [1]); 100 µM with GM-CSF (setting [2]); 0.54 µM in the assay with IFN-gamma (setting [3]); 0.54 µM with IFN-gamma (setting [4]); 0.13 µM in the assay on IL-17F (setting [5]). Further, the IC50 was 0.13 µM in the assay on IL-17F (setting [6]); 8.01 µM in the assay on IL-21 (setting [7]); 8.01 µM in the assay on IL-21 (setting [8]); more than 100 µM in the assay with TGF-beta (setting [9]); 100 µM with TGF-beta (setting [10]); 0.11 µM with TNF-alpha (setting [11]). Also, the IC50 with TNF-alpha (setting [12]) was found to be 0.11 µM.

On to `O=C(O)Cc1cc(O)c(C(=O)Nc2c(C(=O)O)cccc2C(=O)O)cc1O` [IIIa-013a, 2-(4-(carboxymethyl)-2,5-dihydroxybenzamido)isophthalic acid], for which the IC50 on VEGFR-2 is 1.3 µM; in the assay with GM-CSF (setting [1]), 27.8 µM; with GM-CSF (setting [2]) it was 27.8 µM; with IFN-gamma (setting [3]), 0.15 µM; in the assay with IFN-gamma (setting [4]), 0.15 µM; in the assay on IL-17F (setting [5]), 0.41 µM. The IC50 in the assay on IL-17F (setting [6]) is 0.41 µM; with IL-21 (setting [7]) it was 1.63 µM; in the assay with IL-21 (setting [8]), 1.63 µM; in the assay with TGF-beta (setting [9]), more than 100 µM; with TGF-beta (setting [10]), 100 µM; in the assay with TNF-alpha (setting [11]) it was 0.51 µM. Besides, the IC50 with TNF-alpha (setting [12]) was 0.51 µM.

In the case of `CCOC(=O)c1cc(NC(=O)c2cc(O)c(C(=O)OCC)cc2O)cc(NC(=O)c2cc(O)c(C(=O)OCC)cc2O)c1` [Ib-010a-E3, ethyl 3,5-bis(2,5-dihydroxy-4-ethoxycarbonylbenzoylamino)benzoate], the IC50 at VEGFR-2 is 0.09 µM; in the assay on GM-CSF (setting [1]), more than 100 µM; in the assay with GM-CSF (setting [2]) it was 100 µM; with IFN-gamma (setting [3]), 2.79 µM; in the assay on IFN-gamma (setting [4]), 2.79 µM; in the assay with IL-17F (setting [5]) it was 34.2 µM. Besides, the IC50 with IL-17F (setting [6]) is 34.2 µM; in the assay on IL-21 (setting [7]), more than 100 µM; in the assay with IL-21 (setting [8]) it was 100 µM; with TGF-beta (setting [9]), more than 100 µM; in the assay on TGF-beta (setting [10]), 100 µM; in the assay with TNF-alpha (setting [11]), 0.98 µM. In the assay on TNF-alpha (setting [12]), the IC50 came out at 0.98 µM.

With `O=C(O)c1cc(NC(=O)c2cc(O)c(C(=O)O)cc2O)cc(C(=O)O)c1` [Ia-015a, 5-(4-carboxy-2,5-dihydroxybenzamido)isophthalic acid], the IC50 on VEGFR-2 was 0.15 µM; in the assay with GM-CSF (setting [1]), 2.76 µM; in the assay on GM-CSF (setting [2]), 2.76 µM; in the assay on IFN-gamma (setting [3]), more than 100 µM; in the assay on IFN-gamma (setting [4]), 100 µM; with IL-17F (setting [5]) it was 0.15 µM. The half-inhibitory concentration (IC50) with IL-17F (setting [6]) is 0.15 µM; in the assay with IL-21 (setting [7]), 57.2 µM; in the assay on IL-21 (setting [8]), 57.2 µM; in the assay on TGF-beta (setting [9]), more than 100 µM; with TGF-beta (setting [10]), 100 µM; with TNF-alpha (setting [11]), 0.17 µM. For the same compound, the IC50 with TNF-alpha (setting [12]) was found to be 0.17 µM.
